Like-named read-outs stand apart in the source and are kept apart here.
Experiments:
Format in all cases: in vivo
[1] = test system: Viola tricolor (VIOTR); experiment: Pre-emergence herbicidal action against VIOTR; conditions: 320 g/ha, Viola tricolor
Outline: (§1)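 Application rates ran to 320 g/ha or lower, with several dosages tested on the same weeds. The compound, as wettable powder or emulsion concentrate, is sprayed pre-emergence onto soil over sown seeds; greenhouse growth follows, and effect is rated visually after roughly 3 weeks.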

[2] = test system: Pharbitis purpurea (PHBPU); experiment: Post-emergence herbicidal action against PHBPU; conditions: dosage 320 g/ha
Outline: (§2)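 Doses of 320 g/ha or lower, suffixes a, b and c marking different dosages, were applied post-emergence at the one-leaf stage in 600 l/ha water with 0.5% additive. Damage was assessed visually after about 3 weeks in the greenhouse.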

[3] = test system: Brassica napus (BRSNW); conditions: crop plant compatibility, in comparison to untreated controls
Outline: (§3)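 Crop injury rated visually in percent against untreated plants roughly 3 weeks after treatment (0% no effect, 100% plants dead). Compounds, as WP or EC with 0.5% additive in 600 l/ha water, were applied to the covering soil right after sowing; greenhouse growth. Suffixes a, b, c denote different dosages.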

[4] = test system: Glycine max (GLXMA); conditions: pre-emergence, crop plant compatibility, in comparison to untreated controls
Outline: as §3

[5] = test system: Zea mays (ZEAMX); conditions: pre-emergence, crop plant compatibility, in comparison to untreated controls
Outline: as §3

[6] = test system: Oryza sativa (ORYSA); conditions: pre-emergence, crop plant compatibility, in comparison to untreated controls
Outline: as §3

[7] = test system: Triticum aestivum (TRZAS); conditions: pre-emergence, 80 g/ha, crop plant compatibility, in comparison to untreated controls
Outline: as §3

[8] = test system: Zea mays (ZEAMX); conditions: crop plant compatibility, effect vs untreated controls
Outline: (§4)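 Greenhouse crops in sandy loam sprayed post-emergence at the one-leaf stage, 2–3 weeks after sowing, with WP or EC formulations in water plus 0.5% additive at 600 l/ha. Damage rated visually about 3 weeks later versus untreated controls (0% = like control, 100% = dead); suffixes a–c denote different doses.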

[9] = test system: Oryza sativa (ORYSA); conditions: crop plant compatibility, effect in comparison to untreated controls
Outline: as §4

[10] = test system: Triticum aestivum (TRZAS); conditions: crop plant compatibility, 80 g/ha, effect vs untreated controls
Outline: as §4

[11] = test system: Lolium rigidum (LOLRI); experiment: Pre-emergence herbicidal action against LOLRI; conditions: dosage 320 g/ha
Outline: as §1

[12] = test system: Setaria viridis (SETVI); experiment: Post-emergence herbicidal action against SETVI
Outline: as §2

[13] = test system: Setaria viridis (SETVI); experiment: Pre-emergence herbicidal action against SETVI; conditions: dosage 320 g/ha
Outline: as §1

[14] = test system: Amaranthus retroflexus (AMARE); experiment: Post-emergence herbicidal action against AMARE
Outline: as §2

[15] = test system: Viola tricolor (VIOTR); experiment: Post-emergence herbicidal action against VIOTR; conditions: 320 g/ha
Outline: as §2

[16] = test system: Amaranthus retroflexus (AMARE); experiment: Pre-emergence herbicidal action against AMARE; conditions: 320 g/ha, visual scoring after about 3 weeks vs untreated controls
Outline: as §1

[17] = test system: Avena fatua (AVEFA); experiment: Post-emergence herbicidal action against AVEFA; conditions: 320 g/ha, visual rating about 3 weeks after treatment
Outline: as §2

[18] = test system: Alopecurus myosuroides (ALOMY); experiment: Post-emergence herbicidal action against ALOMY; conditions: 320 g/ha, visual rating about 3 weeks after treatment vs untreated controls (100% = plants have died, 0% = like control plants)
Outline: as §2

[19] = test system: Abutilon theophrasti (ABUTH); experiment: Post-emergence herbicidal action against ABUTH; conditions: 320 g/ha, visual rating about 3 weeks after treatment vs untreated controls (100% = plants have died, 0% = like control plants)
Outline: as §2

[20] = test system: Verconica persica (VERPE); experiment: Post-emergence herbicidal action against VERPE; conditions: 320 g/ha, VERPE
Outline: as §2

[21] = test system: Alopecurus myosuroides (ALOMY); experiment: Pre-emergence herbicidal action against ALOMY; conditions: 320 g/ha; scored visually after about 3 weeks; 100% = plants have died
Outline: as §1

[22] = test system: Matricaria inodora (MATIN); experiment: Pre-emergence herbicidal action against MATIN
Outline: as §1

[23] = test system: Echinochloa crus-galli (ECHCG); experiment: Post-emergence herbicidal action against ECHCG
Outline: as §2

[24] = test system: Polygonum convolvulus (POLCO); experiment: Post-emergence herbicidal action against POLCO; conditions: dosage 320 g/ha
Outline: as §2

[25] = test system: Echinochloa crus-galli (ECHCG); experiment: Pre-emergence herbicidal action against ECHCG; conditions: dosage 320 g/ha
Outline: as §1

[26] = test system: Polygonum convolvulus (POLCO); experiment: Pre-emergence herbicidal action against POLCO; conditions: dosage 320 g/ha
Outline: as §1

[27] = test system: Verconica persica (VERPE); experiment: Pre-emergence herbicidal action against VERPE; conditions: dosage 320 g/ha
Outline: as §1

[28] = 320 g/ha, visual rating about 3 weeks after treatment

| SMILES | Pre-emergence action against VIOTR in % [1] [%] | Post-emergence action against PHBPU in % [2] [%] | Pre-emergence action against BRSNW in % ([3]; 80 g/ha) [%] | Pre-emergence action against BRSNW in % ([3]; 320 g/ha) [%] | Pre-emergence action against GLXMA in % ([4]; 80 g/ha) [%] | Pre-emergence action against GLXMA in % ([4]; 320 g/ha) [%] | Pre-emergence action against ZEAMX in % ([5]; 80 g/ha) [%] | Pre-emergence action against ZEAMX in % ([5]; 320 g/ha) [%] | Pre-emergence action against ORYSA in % ([6]; 320 g/ha) [%] | Pre-emergence action against TRZAS in % [7] [%] | Post-emergence action against ZEAMX in % ([8]; 80 g/ha) [%] | Post-emergence action against ZEAMX in % ([8]; 320 g/ha) [%] | Post-emergence action against ORYSA in % ([9]; 80 g/ha) [%] | Post-emergence action against ORYSA in % ([9]; 320 g/ha) [%] | Post-emergence action against TRZAS in % [10] [%] | Pre-emergence action against LOLRI in % [11] [%] | Post-emergence action against SETVI in % ([12]; dosage 320 g/ha) [%] | Pre-emergence action against SETVI in % [13] [%] | Post-emergence action against AMARE in % [14, 28] [%] | Pre-emergence action against AMARE in % [16] [%] | other results |
| --- | --- | --- | --- | --- | --- | --- | --- | --- | --- | --- | --- | --- | --- | --- | --- | --- | --- | --- | --- | --- | --- |
| COC(=O)COc1nn(-c2ncccc2OC)c(-c2ccc(F)nc2)c1Cl [Example I-346] | 80 | 90 | 0 | 20 | 0 | 20 | 0 | 0 | 0 | 0 | 0 | 0 | 0 | 0 | 10 | – | – | – | – | – | – |
| O=C(O)COc1nn(-c2ccnc(Cl)c2)c(-c2ccc(F)nc2)c1Br [III-23] | – | 80 | 0 | 0 | 0 | – | 0 | 0 | – | 0 | 0 | – | 0 | 20 | 0 | 100 | 100 | 100 | 90 | 90 | Post-emergence action against SETVI in % ([12]; dosage 80 g/ha): 80%; Post-emergence action against AMARE in % ([14]; 80 g/ha, visual rating about 3 weeks after treatment vs untreated controls (100% = plants have died, 0% = like control plants)): 90%; Post-emergence action against VIOTR in % [15]: 90%; Post-emergence action against AVEFA in % [17]: 80%; Post-emergence action against ALOMY in % [18]: 100%; Post-emergence action against ABUTH in % [19]: 80%; Pre-emergence action against ORYSA in % ([6]; 80 g/ha): 0%; Post-emergence action against VERPE in % [20]: 90%; Pre-emergence action against ALOMY [21]: 90% |
| COC(=O)CNC(=O)CSc1nn(-c2ccccn2)c(-c2cncnc2)c1Br [Example I-65] | 100 | – | 20 | – | 20 | – | – | – | – | 20 | – | – | 0 | 0 | – | 90 | 80 | 90 | 80 | 90 | Pre-emergence action against MATIN in % ([22]; dosage 80 g/ha): 80%; Pre-emergence action against MATIN in % ([22]; dosage 320 g/ha): 90%; Post-emergence action against AVEFA in % [17]: 80%; Post-emergence action against ECHCG in % ([23]; dosage 80 g/ha): 80%; Post-emergence action against ECHCG in % ([23]; dosage 320 g/ha): 80%; Post-emergence action against POLCO in % [24]: 80%; Pre-emergence action against ECHCG in % [25]: 90%; Pre-emergence action against POLCO in % [26]: 90%; Pre-emergence action against ALOMY [21]: 80%; Pre-emergence action against VERPE in % [27]: 80% |
| CCOC(=O)COc1nn(-c2ncccc2OC)c(-c2ccc(F)nc2)c1I [Example I-386] | – | – | 0 | 0 | 0 | 0 | 0 | 0 | 20 | 20 | 0 | 0 | 0 | 0 | – | – | – | – | – | – | Pre-emergence action against ORYSA in % ([6]; 80 g/ha): 0% |

Source: patent US20240041042A1, “1-(PYRIDYL)-5-AZINYLPYRAZOLE DERIVATIVES, AND THEIR USE FOR CONTROL OF UNDESIRED PLANT GROWTH” (Bayer Aktiengesellschaft, priority 2020, published 2024)
